One data set concerns the target T1, AR protein (Homo sapiens, UniProt P10275).
T1 construct: endogenous in cells; host or cells: VCaP
T1 sequence (P10275 1-920): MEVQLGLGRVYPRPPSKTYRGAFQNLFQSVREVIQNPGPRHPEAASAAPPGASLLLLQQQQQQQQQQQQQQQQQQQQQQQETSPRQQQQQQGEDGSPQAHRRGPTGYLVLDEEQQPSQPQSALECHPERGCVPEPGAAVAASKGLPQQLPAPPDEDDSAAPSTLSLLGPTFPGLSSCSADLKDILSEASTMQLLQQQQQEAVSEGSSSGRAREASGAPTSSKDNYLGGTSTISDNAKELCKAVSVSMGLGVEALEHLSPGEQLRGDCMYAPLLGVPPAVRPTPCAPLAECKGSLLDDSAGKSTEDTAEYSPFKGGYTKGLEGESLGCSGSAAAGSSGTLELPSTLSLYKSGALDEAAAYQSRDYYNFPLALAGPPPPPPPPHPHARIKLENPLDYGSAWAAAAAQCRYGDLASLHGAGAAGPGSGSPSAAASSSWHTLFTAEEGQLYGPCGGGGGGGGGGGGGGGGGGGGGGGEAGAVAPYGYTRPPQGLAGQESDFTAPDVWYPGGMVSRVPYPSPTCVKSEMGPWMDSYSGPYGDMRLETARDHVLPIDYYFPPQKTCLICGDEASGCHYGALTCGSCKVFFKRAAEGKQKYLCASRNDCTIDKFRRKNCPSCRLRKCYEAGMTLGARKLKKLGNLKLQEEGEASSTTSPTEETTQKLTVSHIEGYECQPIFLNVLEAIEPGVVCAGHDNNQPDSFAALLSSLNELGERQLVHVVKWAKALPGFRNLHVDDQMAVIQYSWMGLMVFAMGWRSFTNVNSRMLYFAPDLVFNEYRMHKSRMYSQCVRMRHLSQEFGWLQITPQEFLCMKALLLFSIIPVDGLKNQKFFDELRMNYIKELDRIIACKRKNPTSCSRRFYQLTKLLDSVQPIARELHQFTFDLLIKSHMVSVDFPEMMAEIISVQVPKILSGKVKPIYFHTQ
Briefly: Western blotting of AR protein degradation in VCaP cells. The data set is classed as cell-based. The settings on record: for AR protein degradation VCap 10 nM / AR protein degradation VCap 100 nM: 24 hr treatment. Here is the method: The treated cells were lysed with RIPA buffer. […] GAPDH was used as a loading control.
Bands were quantified with ImageJ software. The relative numbers of each band obtained from normalization with its corresponding GAPDH level were compared with Prism 8 software. The DC50 values were produced from Prism 8, and the DC90 values were calculated with an equation=Bottom+(Top−Bottom)/(1+10^((Log EC50−X)*HillSlope) based on DC50 and Hillslope values.
A general note: A western blot detects proteins with antibodies after separation by electrophoresis.

Data set [1] in a line: PK parameters in male mice (Table 9). The class given is in vivo. The protocol: The pharmacokinetics (PK) of representative Compounds of the Disclosure were evaluated in mice or rats to provide an assessment of their oral bioavaibility. All animal experiments were performed under the guidelines of the University of Michigan Committee for Use and Care of Animals and using an approved animal protocol.

[2] abbreviates: ICR, mouse, in vivo, IV 1 mg/kg.

For orientation: AUC(0-t) means exposure summed from dosing to a finite time, without extrapolation to infinity. A word on the Vss: it is a proportionality between amount in the body and measured concentration, not a real space. Read a high Vss as wide distribution into tissue. For orientation: Cmax means the peak of the concentration-time curve. As a reminder, the Tmax is the time at which the peak concentration occurs. As usually defined, the clearance is the volume of plasma or blood freed of the substance per unit of time. Broadly, the half-life is the time needed for the level to fall by half in the phase considered. Read a high half-life as slow loss.

Where two headings read alike, the source gives them in different places.

`CN(c1ccc(C#N)c(Cl)c1)[C@H]1CC[C@H](NC(=O)c2ccc(N3CCN(C4CN(c5ccc6c(c5)C(=O)N(C5CCC(=O)NC5=O)C6=O)C4)CC3)cc2)CC1` (some centres unmarked) [Cpd. No. 238, N-((1r,4r)-4-((3-chloro-4-cyanophenyl)(methyl)amino)cyclohexyl)-4-(4-(1-(2-(2,6-dioxopiperidin-3-yl)-1,3-dioxoisoindolin-5-yl)azetidin-3-yl)piperazin-1-yl)benzamide]: the “% AR protein degradation in VCaP Cells” value at AR protein (0.001 μM) was determined as 78%. Also, on AR protein (0.01 μM), the “% AR protein degradation in VCaP Cells” value is given as 90%. For the same molecule, the “% AR protein degradation in VCaP Cells” value at AR protein (0.1 μM) worked out at 89%. Further, the “% AR protein degradation in VCaP Cells” value at AR protein (1 μM) was 78%. In data set [1] (IV 2 mg/kg), the “AUC(0-t)” value was found to be 6481 ng·h/mL, the Cl amounted to 0.3 L/h/kg, the T1/2 came to 5.5 h and the volume of distribution (Vss) is given as 1.8 L/kg. Besides, in data set [1] (PO 5 mg/kg), the “AUC(0-t)” value is 8254 ng·h/mL, the Cmax is reported as 1140 ng/mL, the T1/2 turned out to be 4.6 h and the time to peak (Tmax) was 2.0 h. Further, the F in data set [1] (PO 5 mg/kg vs IV 2 mg/kg) is listed as 51%.

Regarding `CN(c1ccc(C#N)c(Cl)c1)[C@H]1CC[C@H](NC(=O)c2ccc(N3CCN(CC4CN(c5ccc6c(c5)C(=O)N(C5CCC(=O)NC5=O)C6=O)C4)CC3)cc2)CC1` (some centres unmarked) [compound 237, N-((1r,4r)-4-((3-chloro-4-cyanophenyl)(methyl)amino)cyclohexyl)-4-(4-((1-(2-(2,6-dioxopiperidin-3-yl)-1,3-dioxoisoindolin-5-yl)azetidin-3-yl)methyl)piperazin-1-yl)benzamide], in data set [1] (IV 1 mg/kg), the “AUC(0-t)” value amounted to 1226 ng·h/mL, the Cl is on record as 0.82 L/h/kg, the T1/2 amounted to 3.8 h and the volume of distribution (Vss) is 3.92 L/kg. Also, in data set [1] (PO 3 mg/kg), the area under the curve AUC(0-t) worked out at 1111 ng·h/mL, the peak concentration (Cmax) was 127 ng/mL, the T1/2 turned out to be 4.3 h and the time to peak (Tmax) worked out at 5.3 h. The molecule further gave a F in data set [1] (PO 3 mg/kg vs IV 1 mg/kg) of 30%.

As for `C[C@H]1C[C@@H](NC(=O)c2ccc(N3CCN(CC4CCN(c5ccc6c(c5)C(=O)N(C5CCC(=O)NC5=O)C6=O)CC4)CC3)cc2)CC[C@@H]1Oc1ccc(C#N)c(Cl)c1` (some centres unmarked) [Cpd. No. 23], on AR protein, the “AR protein degradation VCap 10 nM” value is “A (>90% degradation (24 hr treatment))” and the “AR protein degradation VCap 100 nM” value is recorded as “A (>90% degradation (24 hr treatment))”.

On to `N#Cc1ccc(N[C@H]2CC[C@H](NC(=O)c3ccc(N4CCN(C5CN(c6ccc7c(c6)C(=O)N(C6CCC(=O)NC6=O)C7=O)C5)CC4)cc3)CC2)cc1Cl` (some centres unmarked) [Cpd. No. 28, N-((1r,4r)-4-((3-chloro-4-cyanophenyl)amino)cyclohexyl)-4-(4-(1-(2-(2,6-dioxopiperidin-3-yl)-1,3-dioxoisoindolin-5-yl)azetidin-3-yl)piperazin-1-yl)benzamide], for which, at AR protein, the “AR protein degradation VCap 10 nM” value is given as “A (>90% degradation (24 hr treatment))” and the “AR protein degradation VCap 100 nM” value is given as “A (>90% degradation (24 hr treatment))”.

On to `CN(c1ccc(C#N)c(Cl)c1)[C@H]1CC[C@H](NC(=O)c2ccc(N3CCC(N4CCN(c5ccc6c(c5)C(=O)N(C5CCC(=O)NC5=O)C6=O)CC4)CC3)cc2)CC1` (some centres unmarked) [compound 230, N-((1r,4r)-4-((3-chloro-4-cyanophenyl)(methyl)amino)cyclohexyl)-4-(4-(4-(2-(2,6-dioxopiperidin-3-yl)-1,3-dioxoisoindolin-5-yl)piperazin-1-yl)piperidin-1-yl)benzamide], for which, in data set [1] (setting [2]), the clearance is 5.5 mL/min/kg. Also, in data set [1] (IV 1 mg/kg), the exposure AUC(0-t) is 2857 ng·h/mL, the T1/2 worked out at 6.6 h and the Vss is on record as 2.73 L/kg. In addition, in data set [1] (PO 3 mg/kg), the exposure AUC(0-t) was determined as 3811 ng·h/mL, the maximum concentration (Cmax) was determined as 251 ng/mL, the T1/2 is reported as 10.6 h and the time to peak (Tmax) came out at 5.3 h. In data set [1] (PO 3 mg/kg vs IV 1 mg/kg), this molecule gave an F of 44%.

Take `N#Cc1ccc(O[C@H]2CC[C@H](Nc3ccc(C(=O)N4CCN(C5CCN(c6ccc7c(c6)C(=O)N(C6CCC(=O)NC6=O)C7=O)CC5)CC4)cc3)CC2)cc1Cl` (some centres unmarked) [Cpd. No. 12]: at AR protein, the “AR protein degradation VCap 10 nM” value is reported as “C (>10% degradation but <50% (24 hr treatment))” and the “AR protein degradation VCap 100 nM” value was “A (>90% degradation (24 hr treatment))”.

For `N#Cc1ccc(O[C@H]2CC[C@H](NC(=O)c3ccc(NCCCCCCCCCCNc4ccc5c(c4)C(=O)N(C4CCC(=O)NC4=O)C5=O)cc3)CC2)cc1Cl` (some centres unmarked) [compound 216, N-((1r,4r)-4-(3-chloro-4-cyanophenoxy)cyclohexyl)-4-((10-((2-(2,6-dioxopiperidin-3-yl)-1,3-dioxoisoindolin-5-yl)amino)decyl)amino)benzamide], the “% AR protein degradation in VCaP Cells” value on AR protein (0.001 μM) is listed as −11%; at AR protein (0.01 μM) it was −9%; at AR protein (0.1 μM) it was 1%; at AR protein (1 μM) it was 22%.

For `N#Cc1ccc(O[C@H]2CC[C@H](NC(=O)c3ccc(N4CCN(CCCCCNc5ccc6c(c5)C(=O)N(C5CCC(=O)NC5=O)C6=O)CC4)cc3)CC2)cc1Cl` (some centres unmarked) [compound 221, N-((1r,4r)-4-(3-chloro-4-cyanophenoxy)cyclohexyl)-4-(4-(5-((2-(2,6-dioxopiperidin-3-yl)-1,3-dioxoisoindolin-5-yl)amino)pentyl)piperazin-1-yl)benzamide], the “% AR protein degradation in VCaP Cells” value on AR protein (0.001 μM) is 17%; at AR protein (0.01 μM), 22%; at AR protein (0.1 μM) it was 51%; on AR protein (1 μM) it was 34%.

As for `N#Cc1ccc(O[C@H]2CC[C@H](NC(=O)c3ccc4c(c3)CCN(CC3CCN(c5ccc6c(c5)C(=O)N(C5CCC(=O)NC5=O)C6=O)CC3)C4)CC2)cc1Cl` (some centres unmarked) [compound 9], the “AR protein degradation VCap 100 nM” value on AR protein was “B (>50% degradation but <90% (24 hr treatment))”.

In data set [1] (setting [2]), `CCN(c1ccc(C#N)c(Cl)c1)[C@H]1CC[C@H](NC(=O)c2ccc(N3CCC(N4CCN(c5ccc6c(c5)C(=O)N(C5CCC(=O)NC5=O)C6=O)CC4)CC3)cc2)CC1` (some centres unmarked) [compound 231, N-((1r,4r)-4-((3-chloro-4-cyanophenyl)(ethyl)amino)cyclohexyl)-4-(4-(4-(2-(2,6-dioxopiperidin-3-yl)-1,3-dioxoisoindolin-5-yl)piperazin-1-yl)piperidin-1-yl)benzamide] showed a clearance of 31.2 mL/min/kg. The half-life in data set [1] (setting [2]) is 246 min; in data set [1] (ICR, mouse, in vivo, PO 3 mg/kg), 144 min. The exposure AUC(0-t) was 539 ng·h/mL in data set [1] (ICR, mouse, in vivo, IV 1 mg/kg, read-out: AUC(0-t)) and 492 ng·h/mL in data set [1] (ICR, mouse, in vivo, PO 3 mg/kg, read-out: AUC(0-t)). In addition, in data set [1] (ICR, mouse, in vivo, IV 1 mg/kg, read-out: Vss), the Vd stood at 4.34 L/kg. Also, the highest concentration (Cmax) in data set [1] (ICR, mouse, in vivo, PO 3 mg/kg, read-out: Cmax) worked out at 102 ng/mL. Besides, the time of peak concentration (Tmax) in data set [1] (ICR, mouse, in vivo, PO 3 mg/kg, read-out: Tmax) came out at 1.7 h. Moreover, the F in data set [1] (PO 3 mg/kg vs IV 1 mg/kg) was determined as 30%.

As to `N#Cc1ccc(O[C@H]2CC[C@H](NC(=O)c3ccc(NCCCCCCNc4ccc5c(c4)C(=O)N(C4CCC(=O)NC4=O)C5=O)cc3)CC2)cc1Cl` (some centres unmarked) [compound 212, N-((1r,4r)-4-(3-chloro-4-cyanophenoxy)cyclohexyl)-4-((6-((2-(2,6-dioxopiperidin-3-yl)-1,3-dioxoisoindolin-5-yl)amino)hexyl)amino)benzamide], the “% AR protein degradation in VCaP Cells” value is reported as 25% at AR protein (0.001 μM), 70% at AR protein (0.01 μM), 86% on AR protein (0.1 μM) and 82% on AR protein (1 μM).

Values taken from patent publication US20230233690A1, “ANDROGEN RECEPTOR PROTEIN DEGRADERS” (THE REGENTS OF THE UNIVERSITY OF MICHIGAN, priority 2020, published 2023).
